Reference: patent US4939133A, “N-substituted-2-hydroxy-α-oxo-benzeneacetamides and pharmaceutical compositions having activity as modulators of the arachidonic acid cascade” (Warner-Lambert Company, priority 1985, dated 1990)

Biological target: T1, 5-lipoxygenase (isolated human leukocytes) (Homo sapiens, UniProt P09917)
T1 construct: 5-Lipoxygenase Assay Using Isolated Human Leukocytes (5LOA2); endogenous in cells; host or cells: isolated human blood leukocytes, platelets removed
T1 sequence (P09917 1-674): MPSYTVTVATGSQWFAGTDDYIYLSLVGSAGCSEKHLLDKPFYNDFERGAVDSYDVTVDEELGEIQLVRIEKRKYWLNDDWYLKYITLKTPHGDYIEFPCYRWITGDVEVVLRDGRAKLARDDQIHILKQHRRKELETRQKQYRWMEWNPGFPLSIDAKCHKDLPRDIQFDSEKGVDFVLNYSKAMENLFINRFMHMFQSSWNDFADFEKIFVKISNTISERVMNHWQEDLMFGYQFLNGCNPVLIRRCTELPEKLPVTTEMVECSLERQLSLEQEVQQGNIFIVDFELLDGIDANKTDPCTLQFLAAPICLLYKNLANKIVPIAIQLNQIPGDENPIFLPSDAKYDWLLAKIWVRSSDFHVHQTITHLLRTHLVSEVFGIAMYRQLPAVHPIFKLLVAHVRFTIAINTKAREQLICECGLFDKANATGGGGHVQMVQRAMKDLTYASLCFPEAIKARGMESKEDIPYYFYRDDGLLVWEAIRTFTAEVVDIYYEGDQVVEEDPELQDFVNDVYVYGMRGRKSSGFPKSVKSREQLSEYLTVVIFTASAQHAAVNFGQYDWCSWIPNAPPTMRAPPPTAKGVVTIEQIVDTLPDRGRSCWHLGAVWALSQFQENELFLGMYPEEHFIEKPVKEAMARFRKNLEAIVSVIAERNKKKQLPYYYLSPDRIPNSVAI
Experiment: 5-Lipoxygenase Assay Using Isolated Human Leukocytes (5LOA2)
Assay type: cell-based
Experimental: 5-Lipoxygenase Assay Using Isolated Human Leukocytes (5LOA2)
The formation of 5-HETE in human leukocytes is considered a measure of 5-lipoxygenase activity. The protocol is described in the following.
Fresh heparinized or EDTA treated human blood is mixed with 6% dextran-3% dextrose in isotonic saline in the ratio 0.25 ml dextran solution per 1.0 ml blood. After mixing the blood is allowed to sit at room temperature for about 90 minutes while the RBC's settle. During this period, the plasma is removed with a plastic pipette to nalgens tubes.
The plasma is centrifuged at 800 rpm ([…]) on the Beckman Td-b refrigerated centrifuge to remove the platelets (which remain in the supernatant). The pellet, consisting of leukocytes and erythrocytes, is treated with 10 ml 0.87% ammonium chloride at room temperature for four minutes, lysing the red cells. At the end of four minutes the cells are diluted with a 2×volume of phosphate buffered saline, pH 7.4, and centrifuged for ten minutes. The cells are washed three times with the phosphate buffered saline. Any of the pelleted cell matter which is not easily resuspended is discarded during the washings --the material contains platelets (12-lipoxygenase activity).
After washing, the cells are resuspended in phosphate buffered saline containing 1.0 mM calcium and 0.5 mM magnesium. After counting the cells are diluted to 1.5-2.0×10^7 leukocytes per milliliter.
To each polypropylene reaction tube is added 0.48 ml leukocytes in Ca-Mg phosphate buffered saline, pH 7.4; 1-5 μl test compound dissolved in DMSO and buffer; or DMSO for control tubes.
The tubes preincubate at 37° C. for five minutes. […]
A portion of the ethanol solution is injected into the HPLC system for 5-HETE quantitation.
The HPLC system consists of Hewlett-Packard 1040A UV spectrophotometry system with an HP85 computer. […] Peaks are measured with a Hewlett Packard 3360A integrator. […] The flow is monitored at 235 nm for 5-HETE quatitation. […]

With `O=C(Nc1ccc(CCc2ccc(Cl)c(Cl)c2)cc1)c1ccccc1O` [Example 42] the “% Inhibition (5LOA2)” value (5LOA2, 2.00 E -5 M) was 30.9% and the “% Inhibition (5LOA2)” value (5LOA2, 5.00 E -6 M) was 21.1%.
